Reference: patent US20150320820A1, “MICROBIOCIDES FROM PLANT EXTRACTS FOR PROTECTION AGAINST HSV 2 INFECTION” (Council of Scientific and Industrial Research, priority 2012, published 2015)
Converted amounts (≈) assume the structure as drawn.

Key:
[1] = system: HSV-2; assay: Anti-HSV-2 plaque reduction assay in Vero cells; type: cell-based, Herpes Simplex Virus Type-2; conditions: HSV-2 plaque assay
Description: 13 wild plant species belonging to eight families Convolvulaceae (3 species), Polygonaceae (2 species), Anacardiaceae (1 species), Combretaceae (2 species), Lauraceae (1 species), Asteraceae (2 species), Zingiberaceae (1 species) and Rhamnaceae (1 species) were selected.
(§1) The methanol extracts of the plant parts and their fractions separated as less polar, medium polar and polar fractions using column chromatography or solvent separation/partitioning, were assessed for toxicity and subsequently for inhibition of HSV-2 in Vero cells by plaque reduction assay. These extracts and fractions were also tested for anti-HIV-1 activity and inhibition of other sexually transmitted pathogens like C. albicans, N gonorrhoea and H. ducreyi.

[2] = system: Vero cells; assay: Cytotoxicity in Vero cells; type: cell-based; conditions: cytotoxic concentration
Description: as §1
(§2) According to Table 3, the extracts of plant species selected from the group consisting of Polygonum glabrum, Rhus mysorensis, Terminalia paniculata, Cuscuta reflexa, Terminalia crenulata, Cassytha filiformis, Scutia myrtina, were studied for cytotoxicity in Vero cells.

[3] = Cytotoxicity in Vero cells; type: cell-based; conditions: African green monkey, cytotoxic concentration
Description: as §1, §2

[4] = system: Haemophilus duceryi ATCC 33921; assay: Anti-Ducreyi activity by agar disc diffusion; type: cell-based, Haemophilus ducreyi; conditions: H. duceryi ATCC 33921 (Tetracycline Sensitive); 10 μg disc, positive control
Description: A tetracycline sensitive strain of H. duceryi ([…]) was cultured on Chanchroid agar (GC agar supplemented with 2% haemoglobin, 5% FBS and 1% isovitalex and incubated at 33° C. for 72 hrs. in a candle jar with 45% moisture. The strain was identified by colony characteristics, Gram stain, growth characteristics (requirement for X and V factors) and Tween 80 hydrolysis as described earlier, and stored at −70° C. in brain heart infusion broth containing 20% glycerol.
The inoculum of each strain was prepared following the CLSI guidelines for bacteria and yeasts. The 0.5 McFarland standard inoculums (approx. 1.5×10^8 CFU/ml) of N. gonorrhoeae, H. duceryi and C. albicans were prepared from freshly grown cultures, in sterile 0.85% normal saline and mixed thoroughly. […]
The primary screening of plant extracts for activity against the three microorganisms included in the study was carried out by Kirby Baur agar disc diffusion method as described earlier. […] The discs (extract/fraction and controls) were placed on the plates previously inoculated with the respective bacterial/fungal culture, incubated as mentioned above and the zone of inhibition was recorded. […] The minimum inhibitory and minimum cidal concentrations of the extracts showing inhibition were determined using following methods.

[5] = Human alphaherpesvirus 2, Vero cells

IC50 [1, 5] [µg/mL] | Compound | IC80 [1, 5] [µg/mL] | TI ([1]; Therapeutic Index) | CC80 [2] [µg/mL] | CC50 [3] [µg/mL] | zone of inhibition [4] [mm]
5.6 (≈ 24.9 µM) | Nc1nc2c(ncn2COCCO)c(=O)[nH]1 [Acyclovir] | 2.81 (≈ 12.5 µM) | 151 | 378 (≈ 1680 µM) | 806 (≈ 3580 µM) | 
 | penicillin |  |  |  |  | 36
